According to publication PMC6151695, “Novel Selective Estrogen Receptor Ligand Conjugates Incorporating Endoxifen-Combretastatin and Cyclofenil-Combretastatin Hybrid Scaffolds: Synthesis and Biochemical Evaluation” (Molecules : A Journal of Synthetic Chemistry and Natural …, 2017):
pIC50: −log10 of the molar value. Marks after values point to notes of the source that are not given here.

What was measured:
HL-60(TB) = assay: NCI60 in vitro screen, Leukemia; assay type: cell-based, human
OVCAR-5 = assay: NCI60 in vitro screen, Ovarian cancer; assay type: cell-based, human
HCT-116 = assay: NCI60 in vitro screen, Colon Cancer; assay type: cell-based, human
human ERβ = molecular target: T1, human ERβ (Homo sapiens, UniProt Q92731); assay: Estrogen receptor fluorescence polarisation competitive binding assay, ERβ; conditions: competitive binding, fluorescence polarisation; read-out: ERβ IC50
T1 construct: purchased Invitrogen

SF539 = assay: NCI60 in vitro screen, CNS Cancer; assay type: cell-based, human
NCI-H552 = assay: NCI60 in vitro screen, Non-Small Cell Lung Cancer; assay type: cell-based, human
RPMI-8226 = assay: NCI60 in vitro screen, Leukemia; assay type: cell-based, human
in vitro = conditions: human
MOLT-4 = assay: NCI60 in vitro screen, Leukemia; assay type: cell-based, human
SNB-75 = assay: NCI60 in vitro screen, CNS Cancer; assay type: cell-based, human
60 cancer cell lines = assay: NCI 60 cell line screen, whole panel; assay type: cell-based, human
MDA-MB-468 = assay: NCI60 in vitro screen, Breast cancer; assay type: cell-based, human
EKVX = assay: NCI60 in vitro screen, Non-Small Cell Lung Cancer; assay type: cell-based, human
NCI-H226 = assay: NCI60 in vitro screen, Non-Small Cell Lung Cancer; assay type: cell-based, human
LOX IMV1 = assay: NCI60 in vitro screen, Melanoma; assay type: cell-based, human
CAKI-1 = assay: NCI60 in vitro screen, Renal cancer; assay type: cell-based, human
MALME-3M = assay: NCI60 in vitro screen, Melanoma; assay type: cell-based, human
CCRF-CEM = assay: NCI60 in vitro screen, Leukemia; assay type: cell-based, human
HOP-62 = assay: NCI60 in vitro screen, Non-Small Cell Lung Cancer; assay type: cell-based, human
786-0 = assay: NCI60 in vitro screen, Renal cancer; assay type: cell-based, human
TK-10 = assay: NCI60 in vitro screen, Renal cancer; assay type: cell-based, human
MCF-7 = conditions: MCF-7, 10 μM
SW-620 = assay: NCI60 in vitro screen, Colon Cancer; assay type: cell-based, human
PC-3 = assay: NCI60 in vitro screen, Prostate cancer; assay type: cell-based, human
OVCAR-3 = assay: NCI60 in vitro screen, Ovarian cancer; assay type: cell-based, human
DU-145 = assay: NCI60 in vitro screen, Prostate cancer; assay type: cell-based, human
MCF-7 cells = conditions: human
SF295 = assay: NCI60 in vitro screen, CNS Cancer; assay type: cell-based, human
NCI-H23 = assay: NCI60 in vitro screen, Non-Small Cell Lung Cancer; assay type: cell-based, human
T-47D = assay: NCI60 in vitro screen, Breast cancer; assay type: cell-based, human

T1 sequence (Q92731 whole entry): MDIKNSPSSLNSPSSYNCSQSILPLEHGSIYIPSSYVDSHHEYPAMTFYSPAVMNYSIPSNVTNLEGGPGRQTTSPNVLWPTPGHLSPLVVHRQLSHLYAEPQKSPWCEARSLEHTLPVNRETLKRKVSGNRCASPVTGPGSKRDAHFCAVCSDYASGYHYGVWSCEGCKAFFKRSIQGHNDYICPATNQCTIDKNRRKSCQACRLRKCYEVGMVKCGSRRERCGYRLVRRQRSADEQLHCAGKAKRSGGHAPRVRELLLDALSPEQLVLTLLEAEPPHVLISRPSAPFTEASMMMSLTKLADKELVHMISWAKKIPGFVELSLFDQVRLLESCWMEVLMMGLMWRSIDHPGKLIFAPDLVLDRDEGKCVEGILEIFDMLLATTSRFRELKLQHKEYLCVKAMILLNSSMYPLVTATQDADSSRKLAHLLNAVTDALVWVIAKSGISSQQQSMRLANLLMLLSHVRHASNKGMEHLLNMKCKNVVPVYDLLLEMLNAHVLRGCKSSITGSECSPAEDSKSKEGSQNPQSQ

CC/C(=C(\c1ccccc1)c1ccc(OCCN(C)C(=O)CCC(=O)Oc2cc(/C=C\c3cc(OC)c(OC)c(OC)c3)ccc2OC)cc1)c1ccccc1 (mixture of isomers) [Compound 16a, N-{2-[4-((Z)-1,2-Diphenylbut-1-enyl)phenoxy]ethyl}-N-methylsuccinamic acid 2-methoxy-5-[(Z)-2-(3,4,5-trimethoxyphenyl)vinyl]phenyl ester]
Growth % (10^−5 M) (HL-60(TB); 10 μM): 28.19%
GI50 (HL-60(TB); Homo sapiens): 14.5 nM
GI50 (OVCAR-5; Homo sapiens, OVCAR-5): 89.4 nM
Growth % (10^−5 M) (OVCAR-5; OVCAR-5, 10 μM): 34.65%
Growth % (10^−5 M) (HCT-116; HCT-116, 10 μM): 1.61%
GI50 (HCT-116; Homo sapiens, HCT-116): 15.6 nM
inhibition at 10 µM (HCT-116; Homo sapiens, HCT-116, one-dose, 10 μM, read-out: growth inhibition): 98%
pIC50 (human ERβ): 7.64
GI50 (SF539; Homo sapiens, SF-539, SF539): 21.3 nM
Growth % (10^−5 M) (SF539; SF539, 10 μM): −7.31 ^e %
GI50 (NCI-H552; Homo sapiens, NCI-H552): 19.7 nM
Growth % (10^−5 M) (NCI-H552; NCI-H552, 10 μM): −30.85 ^e %
GI50 (RPMI-8226; Homo sapiens, RPMI-8226): 27.1 nM
Growth % (10^−5 M) (RPMI-8226; RPMI-8226, 10 μM): −18.51 ^e %
CC50 (in vitro): > 100000 nM
GI50 (MOLT-4; Homo sapiens, MOLT-4): 39.8 nM
Growth % (10^−5 M) (MOLT-4; MOLT-4, 10 μM): 36.2%
GI50 (SNB-75; Homo sapiens, SNB-75): 16.6 nM
Growth % (10^−5 M) (SNB-75; SNB-75, 10 μM): 39.46%
pIC50 (60 cancer cell lines; Homo sapiens, 60 cell, read-out: GI50 (IC50) values for most of the 60 cancer cell lines): 7.14 to 8.00
GI50 (60 cancer cell lines; Homo sapiens, 60 cell, NCI60 five-dose, read-out: MG-MID (μM), mean of GI50 values over all cell lines): 1.62 µM
inhibition at 10 µM (60 cancer cell lines; Homo sapiens, 60 cell, one-dose, 10 μM, read-out: growth inhibition in a further 10 cell lines): 80 to 89%
MG% (10^−5 M), Mean Growth % over all cell lines (60 cancer cell lines; NCI60 one-dose, 10 μM): 14.74%
GI50 (MDA-MB-468; Homo sapiens, MDA-MB-468): 34.3 nM
inhibition at 10 µM (MDA-MB-468; Homo sapiens, MDA-MB-468, one-dose, 10 μM, read-out: growth inhibition): 99%
Growth % (10^−5 M) (MDA-MB-468; MDA-MB-468, 10 μM): 0.68%
Growth % (10^−5 M) (EKVX; 10 μM): 22.72%
GI50 (EKVX; Homo sapiens): 56.9 nM
GI50 (NCI-H226; Homo sapiens, NCI-H226): 47.1 nM
Growth % (10^−5 M) (NCI-H226; NCI-H226, 10 μM): 11.59%
GI50 (LOX IMV1; Homo sapiens, LOX IMV1): 35.8 nM
Growth % (10^−5 M) (LOX IMV1; LOX IMV1, 10 μM): 28.97%
Growth % (10^−5 M) (CAKI-1; CAKI-1, 10 μM): 23.4%
GI50 (CAKI-1; Homo sapiens, CAKI-1): 30.7 nM
GI50 (MALME-3M; Homo sapiens, Malme-3M): > 10000 nM
Growth % (10^−5 M) (MALME-3M; MALME-3M, 10 μM): 74.86%
Growth % (10^−5 M) (CCRF-CEM; 10 μM): 20.38%
GI50 (CCRF-CEM; Homo sapiens): 39.4 nM
Growth % (10^−5 M) (HOP-62; HOP-62, 10 μM): 35.29%
GI50 (HOP-62; Homo sapiens, HOP-62): 49.2 nM
Growth % (10^−5 M) (786-0; 786-0, 10 μM): 11.54%
GI50 (786-0; Homo sapiens, 786-0): 185 nM
GI50 (TK-10; Homo sapiens, TK-10): 589 nM
Growth % (10^−5 M) (TK-10; TK-10, 10 μM): 33.77%
Growth % (10^−5 M) (MCF-7): 10.06%
GI50 (SW-620; Homo sapiens, SW-620): < 10 nM
Growth % (10^−5 M) (SW-620; SW-620, 10 μM): 28.17%
GI50 (PC-3; Homo sapiens, PC-3): 12 nM
Growth % (10^−5 M) (PC-3; PC-3, 10 μM): 19.1%
GI50 (OVCAR-3; Homo sapiens, OVCAR-3): < 10 nM
Growth % (10^−5 M) (OVCAR-3; OVCAR-3, 10 μM): −57.79 ^e %
Growth % (10^−5 M) (DU-145; DU-145, 10 μM): −36.33 ^e %
GI50 (DU-145; Homo sapiens, DU-145): 12.5 nM
cytotoxicity (LDH assay) (MCF-7 cells): 13.2%
GI50 (SF295; Homo sapiens, SF-295, SF295): 20.8 nM
inhibition at 10 µM (SF295; Homo sapiens, SF-295, one-dose, 10 μM, read-out: growth inhibition): 94%
Growth % (10^−5 M) (SF295; SF295, 10 μM): 6.21%
GI50 (NCI-H23; Homo sapiens, NCI-H23): 45.9 nM
Growth % (10^−5 M) (NCI-H23; NCI-H23, 10 μM): 12.25%
Growth % (10^−5 M) (T-47D; 10 μM): 59.73%
GI50 (T-47D; Homo sapiens, T47D): > 10000 nM
